System: benzodiazepine receptors
Assay: in vivo displacement of radioactive labelled flunitrazepam from benzodiazepine receptors
Details: dose which causes the specific binding of flunitrazepam to benzodiazepine receptors in a living brain to be reduced to 50% of the control value; test as described in US 4,774,245
Excerpt: The pharmaceutical properties of the compounds of the invention can be illustrated by determining their capability for displacing radioactive labelled flunitrazepam from benzodiazepine receptors.
The displacement activity of the compounds of the invention may be found by determining the ED50 value. The ED50 value represents the dose (mg/kg) of a test substance which causes the specific binding of flunitrazepam to benzodiazepine receptors in a living brain to be reduced to 50% of the control value.
Such an in vivo test is carried out as described in US 4,774,245.

Structure (SMILES) | ED50 [mg/kg]
c1ccc2c(c1)c(N1CCOCC1)nc1c(-c3noc(C4CC4)n3)ncn12 [Compound 14, 3-(5-cyclopropyl-1,2,4-oxadiazol-3-yl)-5-morpholino-imidazo[1,5-a]quinazoline] | 1.9
CN(C)c1nc2c(-c3noc(C4CC4)n3)ncn2c2ccccc12 [Compound 13, 3-(5-cyclopropyl-1,2,4-oxadiazol-3-yl)-5-dimethylamino-imidazo[1,5-a]quinazoline] | 1.5
CN(C)c1nc2ccccc2n2cnc(-c3noc(C4CC4)n3)c12.Cl [Compound 4, 3-(5-cyclopropyl-1,2,4-oxadiazol-3-yl)-4-dimethylamino-imidazo[1,5-a]quinoxaline hydrochloride] | 4.1
c1ccc2c(c1)c(N1CCOCC1)nc1c(-c3nc(C4CC4)no3)ncn12 [Compound 19, 3-(3-cyclopropyl-1,2,4-oxadiazol-5-yl)-5-morpholino-imidazo[1,5-a]quinazoline] | 1.6
